Results taken from patent EP2815749A1, “Solid form of 4-amino-2-(2,6-dioxopiperidine-3-yl)isoindoline-1,3-dione having specified X-ray diffraction pattern” (IP Gesellschaft für Management mbH, priority 2013, dated 2014).
≈ marks a conversion by molar mass, not a printed value. Where two headings read alike, the source gives them in different places.

Test: Approximate solubility of pomalidomide at 50°C in 96 solvent compositions (LC)
Type: physicochemical
Settings: organic solvent or mixture, thermodynamic from solid
Experimental: Pomalidomide Solid Form Preparations: Preparation of solid form of pomalidomide was conducted by equilibrating pomalidomide in 96 solvent compositions at 50°C and subjected to four conditions: slurry, evaporation, cooling, and precipitation. […] Solvents were then added, as binary gradients consisting of main solvent and co-solvent, to give a total of 150 µl, in each of the 96 vials (see Table 6 for the exact composition of each vial). […] For each of the evaporation, precipitation, and cooling experiments, approximately 8 mg of a solid sample of pomalidomide (e.g., Form A) was delivered to each position of the plate. Solvents were added to the master plate, as binary gradients consisting of main solvent and co-solvent, to give a total volume of 800 µT in each of the 96 vials (see Table 7 for the exact composition of each vial). The master plate, containing pomalidomide and solvents, was then equilibrated by stirring for 2 hours at 50°C. Upon completion of the equilibration cycle, the supernatant was aspirated into a four-tipped needle assembly and transferred to a sealed parallel filtration assembly. The mixtures were forced through the filtration assembly using positive pressure and the filtrates were collected in an array of glass vials. The filtered solutions were subsequently aspirated into the four-tipped assembly and aliquots were dispensed to an array of glass vials for subsequent LC analysis to determine approximate concentrations of pomalidomide in each solvent composition at the beginning of the experiments (Table 8). Both the four-tipped needle assembly and filtration assembly were maintained at the equilibration temperature of 50°C throughout the entire transfer process.
The results correspond to the solvent systems described in Table 7, equilibrated at 50°C for 2 hours. […] The approximate concentrations were determined by LC.

Nc1cccc2c1C(=O)N(C1CCC(=O)NC1=O)C2=O (stereo not drawn) [Pomalidomide, 4-amino-2-(2,6-dioxopiperidine-3-yl)isoindoline-1,3-dione]
solubility at 2 h (binary solvent composition (main solvent and co-solvent), 50 °C, solvent system D12 of Table 7, read-out: Approximate Measured Solubility): 670 µg/mL (≈ 2450 µM) | solubility at 2 h (binary solvent mixture (main solvent and co-solvent), 50 °C, solvent system D9 of Table 7, read-out: Approximate Measured Solubility): 1630 µg/mL (≈ 5970 µM) | solubility at 2 h (binary solvent mixture (main solvent and co-solvent), 50 °C, solvent system E1 of Table 7, read-out: Approximate Measured Solubility): 1600 µg/mL (≈ 5860 µM) | solubility at 2 h (binary solvent mixture (main solvent and co-solvent), 50 °C, solvent system E2 of Table 7, read-out: Approximate Measured Solubility): 690 µg/mL (≈ 2530 µM) | solubility at 2 h (binary solvent mixture (main solvent and co-solvent), 50 °C, solvent system E3 of Table 7, read-out: Approximate Measured Solubility): 320 µg/mL (≈ 1170 µM) | solubility at 2 h (binary solvent mixture (main solvent and co-solvent), 50 °C, solvent system E4 of Table 7, read-out: Approximate Measured Solubility): 130 µg/mL (≈ 476 µM) | solubility at 2 h (binary solvent mixture (main solvent and co-solvent), 50 °C, solvent system E5 of Table 7, read-out: Approximate Measured Solubility): 20 µg/mL (≈ 73.2 µM) | solubility at 2 h (binary solvent mixture (main solvent and co-solvent), 50 °C, solvent system E7 of Table 7, read-out: Approximate Measured Solubility): 20 µg/mL (≈ 73.2 µM) | solubility at 2 h (binary solvent mixture (main solvent and co-solvent), 50 °C, solvent system E8 of Table 7, read-out: Approximate Measured Solubility): 730 µg/mL (≈ 2670 µM) | solubility at 2 h (binary solvent mixture (main solvent and co-solvent), 50 °C, solvent system E9 of Table 7, read-out: Approximate Measured Solubility): 1630 µg/mL (≈ 5970 µM) | solubility at 2 h (binary solvent mixture (main solvent and co-solvent), 50 °C, solvent system E10 of Table 7, read-out: Approximate Measured Solubility): 2310 µg/mL (≈ 8450 µM) | solubility at 2 h (binary solvent mixture (main solvent and co-solvent), 50 °C, solvent system E11 of Table 7, read-out: Approximate Measured Solubility): 2480 µg/mL (≈ 9080 µM) | solubility at 2 h (binary solvent mixture (main solvent and co-solvent), 50 °C, solvent system E12 of Table 7, read-out: Approximate Measured Solubility): 950 µg/mL (≈ 3480 µM) | solubility at 2 h (binary solvent mixture (main solvent and co-solvent), 50 °C, solvent system F1 of Table 7, read-out: Approximate Measured Solubility): 100 µg/mL (≈ 366 µM) | solubility at 2 h (binary solvent mixture (main solvent and co-solvent), 50 °C, solvent system F2 of Table 7, read-out: Approximate Measured Solubility): 60 µg/mL (≈ 220 µM) | solubility at 2 h (binary solvent mixture (main solvent and co-solvent), 50 °C, solvent system F3 of Table 7, read-out: Approximate Measured Solubility): 30 µg/mL (≈ 110 µM) | solubility at 2 h (binary solvent mixture (main solvent and co-solvent), 50 °C, solvent system F4 of Table 7, read-out: Approximate Measured Solubility): 10 µg/mL (≈ 36.6 µM) | solubility at 2 h (binary solvent mixture (main solvent and co-solvent), 50 °C, solvent system F7 of Table 7, read-out: Approximate Measured Solubility): 40 µg/mL (≈ 146 µM) | solubility at 2 h (binary solvent mixture (main solvent and co-solvent), 50 °C, solvent system F8 of Table 7, read-out: Approximate Measured Solubility): 40 µg/mL (≈ 146 µM) | solubility at 2 h (binary solvent mixture (main solvent and co-solvent), 50 °C, solvent system F9 of Table 7, read-out: Approximate Measured Solubility): 130 µg/mL (≈ 476 µM) | solubility at 2 h (binary solvent mixture (main solvent and co-solvent), 50 °C, solvent system F12 of Table 7, read-out: Approximate Measured Solubility): 550 µg/mL (≈ 2010 µM) | solubility at 2 h (binary solvent mixture (main solvent and co-solvent), 50 °C, solvent system G1 of Table 7, read-out: Approximate Measured Solubility): 2690 µg/mL (≈ 9840 µM) | solubility at 2 h (binary solvent mixture (main solvent and co-solvent), 50 °C, solvent system G2 of Table 7, read-out: Approximate Measured Solubility): 1650 µg/mL (≈ 6040 µM) | solubility at 2 h (binary solvent mixture (main solvent and co-solvent), 50 °C, solvent system G3 of Table 7, read-out: Approximate Measured Solubility): 700 µg/mL (≈ 2560 µM) | solubility at 2 h (binary solvent mixture (main solvent and co-solvent), 50 °C, solvent system G4 of Table 7, read-out: Approximate Measured Solubility): 230 µg/mL (≈ 842 µM) | solubility at 2 h (binary solvent mixture (main solvent and co-solvent), 50 °C, solvent system G5 of Table 7, read-out: Approximate Measured Solubility): 60 µg/mL (≈ 220 µM) | solubility at 2 h (binary solvent mixture (main solvent and co-solvent), 50 °C, solvent system G7 of Table 7, read-out: Approximate Measured Solubility): 30 µg/mL (≈ 110 µM) | solubility at 2 h (binary solvent mixture (main solvent and co-solvent), 50 °C, solvent system G8 of Table 7, read-out: Approximate Measured Solubility): 410 µg/mL (≈ 1500 µM) | solubility at 2 h (binary solvent mixture (main solvent and co-solvent), 50 °C, solvent system G9 of Table 7, read-out: Approximate Measured Solubility): 650 µg/mL (≈ 2380 µM) | solubility at 2 h (binary solvent mixture (main solvent and co-solvent), 50 °C, solvent system G10 of Table 7, read-out: Approximate Measured Solubility): 2310 µg/mL (≈ 8450 µM) | solubility at 2 h (binary solvent mixture (main solvent and co-solvent), 50 °C, solvent system G11 of Table 7, read-out: Approximate Measured Solubility): 5180 µg/mL (≈ 19000 µM) | solubility at 2 h (binary solvent mixture (main solvent and co-solvent), 50 °C, solvent system G12 of Table 7, read-out: Approximate Measured Solubility): 5990 µg/mL (≈ 21900 µM) | solubility at 2 h (binary solvent mixture (main solvent and co-solvent), 50 °C, solvent system H1 of Table 7, read-out: Approximate Measured Solubility): 380 µg/mL (≈ 1390 µM) | solubility at 2 h (binary solvent mixture (main solvent and co-solvent), 50 °C, solvent system H2 of Table 7, read-out: Approximate Measured Solubility): 240 µg/mL (≈ 878 µM) | solubility at 2 h (binary solvent mixture (main solvent and co-solvent), 50 °C, solvent system H3 of Table 7, read-out: Approximate Measured Solubility): 110 µg/mL (≈ 403 µM) | solubility at 2 h (binary solvent mixture (main solvent and co-solvent), 50 °C, solvent system H4 of Table 7, read-out: Approximate Measured Solubility): 40 µg/mL (≈ 146 µM) | solubility at 2 h (binary solvent mixture (main solvent and co-solvent), 50 °C, solvent system H7 of Table 7, read-out: Approximate Measured Solubility): 50 µg/mL (≈ 183 µM) | solubility at 2 h (binary solvent mixture (main solvent and co-solvent), 50 °C, solvent system H8 of Table 7, read-out: Approximate Measured Solubility): 400 µg/mL (≈ 1460 µM) | solubility at 2 h (binary solvent mixture (main solvent and co-solvent), 50 °C, solvent system H10 of Table 7, read-out: Approximate Measured Solubility): 1500 µg/mL (≈ 5490 µM) | solubility at 2 h (binary solvent mixture (main solvent and co-solvent), 50 °C, solvent system H11 of Table 7, read-out: Approximate Measured Solubility): 1960 µg/mL (≈ 7170 µM) | solubility at 2 h (binary solvent mixture (main solvent and co-solvent), 50 °C, solvent system H12 of Table 7, read-out: Approximate Measured Solubility): 2060 µg/mL (≈ 7540 µM) | solubility at 2 h (solvent system H9 of Table 7, read-out: Approximate Measured Solubility): 860 µg/mL (≈ 3150 µM) | solubility at 2 h (solvent system A1 of Table 7, 50 °C, solvent system A1 of Table 7, read-out: Approximate Measured Solubility): 2240 µg/mL (≈ 8200 µM) | solubility at 2 h (solvent system A2 of Table 7, 50 °C, solvent system A2 of Table 7, read-out: Approximate Measured Solubility): 8190 µg/mL (≈ 30000 µM) | solubility at 2 h (solvent system A3 of Table 7, 50 °C, solvent system A3 of Table 7, read-out: Approximate Measured Solubility): 2430 µg/mL (≈ 8890 µM) | solubility at 2 h (solvent system A10 of Table 7, 50 °C, solvent system A10 of Table 7, read-out: Approximate Measured Solubility): 1830 µg/mL (≈ 6700 µM) | solubility at 2 h (solvent system A11 of Table 7, 50 °C, solvent system A11 of Table 7, read-out: Approximate Measured Solubility): 290 µg/mL (≈ 1060 µM) | solubility at 2 h (solvent system A12 of Table 7, 50 °C, solvent system A12 of Table 7, read-out: Approximate Measured Solubility): 80 µg/mL (≈ 293 µM)
